Assay [1] concerns IL-4-producing (Th2) cells. Nature of the assay: IL-4 ELISPOT on lymph node cells after pVAC1.OVA vaccination, adoptive transfer model. It counts as in vivo, Balb/c mice. The settings on record: for IL-4 producing cells, in words: pVAC1.OVA + adjuvant versus plasmid without adjuvant. The procedure:
(§1) Splenocytes were prepared as in example 1 above.
(§2) Th CD4+ subsets were assessed using the adoptive transfer model (example 2, above). IFN-γ-producing (Th1) and IL-4-producing (Th2) cells were assayed by ELISPOT (example 1, above). […] No cytokine producing cells were detected in empty vector immunised controls.
(§3) Cartridges were prepared using the pVAC1.OVA plasmid, immunisations and T cell responses were as described in example 2.

The test system of assay [2] is IFN-γ-producing (Th1) cells. Nature of the assay: IFN-γ ELISPOT on lymph node cells after pVAC1.OVA vaccination, adoptive transfer model. The class given is in vivo, Balb/c mice. The settings on record: for IFN-γ producing cells, in words: pVAC1.OVA + adjuvant versus plasmid without adjuvant. Here is the method:
as §1, §2, §3

In assay [3] the test system is cytotoxic T cell response. Put plainly: CD8+ T cell-restricted IFN-γ ELISPOT of splenocytes after particle mediated vaccination with pVAC1.PR (influenza nucleoprotein plasmid). It counts as in vivo, C57B1/6 mice. The procedure:
The cytotoxic T cell response was assessed by CD8+ T cell-restricted IFN-γ ELISPOT assay of splenocytes collected one week later. Mice were killed by cervical dislocation and spleens were collected into ice-cold PBS. Splenocytes were teased out into phosphate buffered saline (PBS) followed by lysis of red blood cells (1 minute in buffer consisting of 155 mM NH4Cl, 10 mM KHCO3, 0.1 mM EDTA). After two washes in PBS to remove particulate matter the single cell suspension was aliquoted into ELISPOT plates previously coated with capture IFN-γ antibody and stimulated with CD8-restricted cognate peptide. After overnight culture, IFN-γ producing cells were visualised by application of anti-murine IFN-γ-biotin labelled antibody (Pharmingen) followed by streptavidin—conjugated alkaline phosphatase and quantitated using image analysis.

In assay [4] the test system is EG7-OVA cells. Put plainly: Tumour challenge with EG7-OVA cells after immunisation with pVAC1.OVA. The class given is in vivo, mice.
The subject of assay [5] is cytotoxic T cells (HIV antigens Gag and Nef). Put plainly: IFN-γ ELISPOT of splenocytes with CD8-restricted Gag and Nef peptides after prime/boost vaccination with WRG7077.Gag/Nef. It counts as in vivo, Balb/c mice. Here is the method: Here mice received a primary immunisation followed by a boost immunisation 42 days later.
IFN-γ ELISPOT assays were performed as described (example 1), using CD8-restricted cognate peptides for the Gag and Nef antigens to stimulate splenocytes collected 5 days after the boost immunisation.
Cartridges were prepared using the WRG7077Gag/Nef plasmid, PMID immunisations and T cell responses were as described in example 5. […] Spleens were collected for analysis 6 and 11 days after the boost immunisation.

[6] abbreviates: imiquimod 100 mg/kg s.c. at boost only, splenocytes 5 days after boost, versus plasmid with vehicle.

Take `CC(C)(O)Cn1cnc2c(N)nc3ccccc3c21` [1-(2-hydroxy-2-methylpropyl)-1H-imidazo[4,5-c]quinolin-4-amine]: in assay [1], the “IL-4 producing cells, in words” value was “increased”. Besides, the “IFN-γ producing cells, in words” value in assay [2] is listed as “increased”.
Take `Cc1nc2c(N)nc3ccccc3c2n1CC(C)(C)O` [1-(2-hydroxy-2-methylpropyl)-2-methyl-1H-imidazo[4,5-c]quinolin-4-amine]: the “IL-4 producing cells, in words” value in assay [1] is “increased”. Moreover, the “increase in IL-4 producing CD4 T cells” value in assay [1] (single dose 30 mg/kg, 5 days after immunisation) is “Two”. Further, in assay [2], the “IFN-γ producing cells, in words” value was “increased”.
Take `CCOCc1nc2c(N)nc3ccccc3c2n1CC(C)(C)O` [Resiquimod, 1-(2-hydroxy-2-methylpropyl)-2-ethoxymethyl-1-H-imidazo[4,5-c]quinolin-4-amine]: the “effect on IL-4 producing CD4 T cells” value in assay [1] (1 mg/kg, lymph node cells 5 days after immunisation) is recorded as “only a modest effect”. Further, in assay [1], the “IL-4 producing cells, in words” value is “increased”. Further, in assay [2] (1 mg/kg (apparently optimal dose), lymph node cells 5 days after immunisation), the “increase of IFN-γ producing CD4 T cells” value was “six”. In addition, in assay [2], the “IFN-γ producing cells, in words” value is “increased”.
As for `CC(C)Cn1cnc2c(N)nc3ccccc3c21` [imiquimod, 1-(2-methylpropyl)-1H-imidazo[4,5-c]quinolin-4-amine], in assay [1], the “IL-4 producing cells, in words” value is “increased”. Further, in assay [3] (empty vector pVAC1, imiquimod 30 mg/kg s.c.), the “cytotoxic T cells, control plasmid (pVAC1) + imiquimod versus vehicle” value is on record as “No difference”. Further, the “number of cytotoxic T cells in the spleens, pVAC1.PR + imiquimod versus pVAC1.PR + vehicle” value in assay [3] (imiquimod 30 mg/kg single s.c. injection at immunisation site, splenocytes one week later) is given as 3 times. Also, in assay [3] (in words), the “cytotoxic T-cell response following vaccination with pVAC1.PR (FIG. 1)” value is recorded as “increases”. Further, in assay [4] (in words), the “growth of tumours (FIG. 9)” value is recorded as “delays” and the “tumourigenicity of EG7.OVA tumour cells (FIG. 10)” value was “reduces”. Moreover, in assay [4] (mice immunised with pVAC1.OVA + imiquimod 30 mg/kg s.c., 100,000 cells/mouse two weeks after boost), the tumourigenicity is listed as 25%. The “appearance of palpable tumours” value in assay [4] (pVAC1.OVA + imiquimod 30 mg/kg s.c. compared with pVAC1.OVA alone) was “most delayed”. In assay [2], the “IFN-γ producing cells, in words” value was “increased”. In addition, the “Th1/Th2 bias: increase of IFN-γ versus IL-4 producing cells” value in assay [2] (pVAC1.OVA + imiquimod, ELISPOT) was “more substantial for IFN-γ compared with IL-4”. Also, the “increase in cytotoxic T cells, imiquimod s.c. injection” value in assay [5] (30 mg/kg s.c., 11 days after boost, versus plasmid with s.c. vehicle) is reported as “approximately 2 fold”. Also, the “increase in cytotoxic T cells, imiquimod topically” value in assay [5] (20 μl of 5% (w/v) cream (Aldara) at PMID site, 11 days after boost, versus plasmid with s.c. vehicle) is listed as “approximately 2 fold”. Further, in assay [5] (setting [6]), the “increase in cytotoxic T cells, Gag” value worked out at 10 fold and the “increase in cytotoxic T cells, Nef” value is 100 fold. Besides, in assay [5] (in words), the “cytotoxic T-cell response following vaccination with WRG7077.Gag/Nef (FIG. 5)” value is recorded as “increases” and the “cytotoxic T-cell response, topical application (FIG. 8)” value was “increases”.

For the origin of these results see patent publication US20110002953A1, “USE OF IMMIDAZOQUINOLINAMINES AS ADJUVANTS IN DNA VACCINATION” (priority 2000, published 2011).
